The source made the active and inactive calls. How the calls were made is not given here.
Assay: mitochondrial fusion inhibitors, confirmation, cell-based, chemical genetic, wild-type and mutant (AID 1361)
Details: Cell-based mitochondrial fusion phenotype, imaging
[1] = mutant cells, measured here: mutant cell line IC50

CCOC(=O)c1cc2c(ccn2C)n1Cc1cc(C)ccc1C
IC50 (WT cells): 25 µM (inactive) | IC50 [1]: > 25 µM

Cc1ccc2nc(SC(C(=O)Nc3ccc(F)cc3)c3ccccc3)[nH]c2c1 (stereo not drawn)
IC50 (WT cells): > 25 µM (inactive) | IC50 [1]: > 25 µM

C/C(=C\C(=O)c1ccccc1)Nc1cccc(O)c1
IC50 (WT cells): > 25 µM (inactive) | IC50 [1]: > 25 µM

CC(C)Cn1c(CN(Cc2ccccc2)Cc2ccccc2)nc2c1c(=O)n(C)c(=O)n2C
IC50 (WT cells): 11.5 µM | IC50 [1]: > 25 µM

OCCNc1c2c(nc3ccccc13)CCCC2
IC50 (WT cells): > 25 µM (inactive) | IC50 [1]: > 25 µM

C(=N\Nc1nc(N2CCCCCC2)nc(N2CCCCCC2)n1)/c1ccccc1
IC50 (WT cells): 9.35 µM | IC50 [1]: > 25 µM

Clc1ccc2ncc(-c3nnnn3-c3ccccc3)c(-c3ccccc3)c2c1
IC50 (WT cells): 15.7 µM | IC50 [1]: > 25 µM

Cc1cc(Nc2ccccc2)c2c([N+](=O)[O-])cc(C)c(C)c2n1
IC50 (WT cells): > 25 µM (inactive) | IC50 [1]: > 25 µM

O=C(Nc1ccccc1Oc1ccccc1)c1cc([N+](=O)[O-])ccc1Cl
IC50 (WT cells): 6.46 µM | IC50 [1]: 19.6 µM

CSc1ccc(OC2CCCCC2NS(=O)(=O)c2ccc(Cl)cc2)cc1 (stereo not drawn)
IC50 (WT cells): 16.2 µM | IC50 [1]: > 25 µM

COc1ccccc1NC(=O)CC1S/C(=N/N=C2\CCCc3ccccc32)NC1=O (stereo not drawn)
IC50 (WT cells): 19.6 µM | IC50 [1]: > 25 µM

CCc1cc2c(=O)c(-c3cscn3)coc2cc1O
IC50 (WT cells): > 25 µM (inactive) | IC50 [1]: > 25 µM

Cc1ccc(S(=O)(=O)Nc2ccc(N=Nc3ccc(O)cc3)cc2)cc1
IC50 (WT cells): 17 µM | IC50 [1]: > 25 µM

CC(=O)N1CCC(O)(c2cccc(C(F)(F)F)c2)CC1
IC50 (WT cells): > 25 µM (inactive) | IC50 [1]: > 25 µM

O=C(c1c(F)c(F)c(F)c(F)c1F)N(Cc1ccccc1)Cc1ccccc1
IC50 (WT cells): 15 µM | IC50 [1]: 22.4 µM

Cc1ccc2nc(NCCCNC(=O)c3cnccn3)c(C#N)cc2c1
IC50 (WT cells): > 25 µM (inactive) | IC50 [1]: > 25 µM

Cc1ccc(NC(=O)C2SC(=Nc3ccccc3)C(C(=O)Nc3ccc(Cl)cc3)=C2N)cc1 (stereo not drawn)
IC50 (WT cells): > 25 µM (inactive) | IC50 [1]: > 25 µM

Cn1c(/C=C/N2CCOCC2)c(C(=O)c2ccc(Br)cc2)c(=O)n(C)c1=O
IC50 (WT cells): > 25 µM (inactive) | IC50 [1]: > 25 µM

Cc1[nH]c2ccccc2c1/C=N/NC(=O)C1CC1(c1ccccc1)c1ccccc1 (stereo not drawn)
IC50 (WT cells): 7.93 µM | IC50 [1]: > 25 µM

COc1ccc(-c2nnc(SCc3cc(C)cc(C)c3)o2)cc1
IC50 (WT cells): 12.9 µM | IC50 [1]: > 25 µM

O=C(OC(c1ccc(NS(=O)(=O)c2ccccc2)cc1)(C(F)(F)F)C(F)(F)F)c1ccccc1
IC50 (WT cells): 18.2 µM | IC50 [1]: > 25 µM

COc1cccc(-c2nc(-c3ccccn3)no2)c1
IC50 (WT cells): > 25 µM (inactive) | IC50 [1]: > 25 µM

COc1ccc2nc(NC(=O)CN(c3ccc(C)cc3)S(=O)(=O)c3c(C)nn(C)c3C)sc2c1
IC50 (WT cells): 16 µM | IC50 [1]: > 25 µM

O=C(CN1CCc2ccccc2C1)Nc1ccccc1N1CCCCCC1
IC50 (WT cells): 10.3 µM | IC50 [1]: > 25 µM

CCCOP(=O)(OCCC)C(Nc1cccc(C(F)(F)F)c1)c1ccc(C)cc1 (stereo not drawn)
IC50 (WT cells): 11.2 µM | IC50 [1]: > 25 µM

CC(=O)Oc1ccc(N(C(C)=O)S(=O)(=O)c2cccs2)cc1
IC50 (WT cells): > 25 µM (inactive) | IC50 [1]: > 25 µM

COC(=O)C1=C(O)C(C(=O)OC)C(c2ccc(C)cc2)C(C#N)(C#N)C1c1ccc(C)cc1 (stereo not drawn)
IC50 (WT cells): 4.71 µM | IC50 [1]: > 25 µM

CCCCN(C(=O)c1cccc2c(=O)c(C)c(-c3ccccc3)oc12)c1ccccc1
IC50 (WT cells): 14.7 µM | IC50 [1]: > 25 µM

NS(=O)(=O)c1ccc(N2N=C(c3ccccc3)CC2c2ccccc2)cc1 (stereo not drawn)
IC50 (WT cells): 12.1 µM | IC50 [1]: > 25 µM

Nc1[nH]n2c(=O)c3c(nc2c1N=Nc1ccccc1)CCCC3
IC50 (WT cells): > 25 µM (inactive) | IC50 [1]: > 25 µM

c1ccc(-c2[nH]c(-c3ccccc3)[n+](CC3CO3)c2-c2ccccc2)cc1 (stereo not drawn)
IC50 (WT cells): 18.8 µM | IC50 [1]: > 25 µM

CN(C(=S)Nc1ccc(SC(F)F)cc1)c1ccc(O)cc1
IC50 (WT cells): > 25 µM (inactive) | IC50 [1]: > 25 µM

Cc1ccc(C(C)C)c(OCCNC(=S)Nc2cccc3ccccc23)c1
IC50 (WT cells): 6.51 µM | IC50 [1]: > 25 µM

Cc1nc(-c2ccccc2)sc1-c1nc(-c2ccncc2)ncc1S(=O)(=O)c1ccccc1
IC50 (WT cells): 10.5 µM | IC50 [1]: > 25 µM

COc1cccc2cc(C(=O)N3CCc4ccccc43)c(=O)oc12
IC50 (WT cells): > 25 µM (inactive) | IC50 [1]: > 25 µM

NS(=O)(=O)c1ccc(N2N=C(c3ccccc3)CC2c2ccc(F)cc2)cc1 (stereo not drawn)
IC50 (WT cells): 12 µM | IC50 [1]: > 25 µM

CCCCCCc1nc2ccccc2c(=O)n1NC(=O)c1c(O)c2cccc3c2n(c1=O)CCC3
IC50 (WT cells): 10.5 µM | IC50 [1]: > 25 µM

O=C(Nc1ccc(C(F)(F)F)cc1)c1cc(S(=O)(=O)NCC2COc3ccccc3O2)ccc1F (stereo not drawn)
IC50 (WT cells): 15.2 µM | IC50 [1]: > 25 µM

Cc1ccc(Cn2nc3c(cc2=O)CCc2ccccc2-3)cc1
IC50 (WT cells): > 25 µM (inactive) | IC50 [1]: > 25 µM

CC(C)(C)CC(C)(C)NC(=O)Nc1cccc([N+](=O)[O-])c1
IC50 (WT cells): > 25 µM (inactive) | IC50 [1]: > 25 µM

Nc1ccc2nn(-c3ccccc3)nc2c1
IC50 (WT cells): > 25 µM (inactive) | IC50 [1]: > 25 µM

CCOC(=O)c1c(C)[nH]c(C)c1C(=O)CSc1nnc(-c2ccncc2)n1C
IC50 (WT cells): > 25 µM (inactive) | IC50 [1]: > 25 µM

Cc1nn(-c2ccccc2)c(C)c1NC(=O)c1ccc(S(=O)(=O)N2CCCC2)cc1
IC50 (WT cells): > 25 µM (inactive) | IC50 [1]: > 25 µM

COc1cccc(-c2ccc(C#N)c(OC(=O)c3c(Cl)cccc3Cl)n2)c1
IC50 (WT cells): > 25 µM (inactive) | IC50 [1]: > 25 µM

COC(=O)C1CN(C#N)N(c2ccc(Cl)cc2)C12c1ccccc1-c1ccccc12 (stereo not drawn)
IC50 (WT cells): 2.48 µM | IC50 [1]: > 25 µM

O=C(Cc1ccc(Cl)cc1)Nc1ccccc1CO
IC50 (WT cells): > 25 µM (inactive) | IC50 [1]: > 25 µM

CC(C)(C)c1ccc(CSc2nnc(-c3ccccn3)n2Cc2ccco2)cc1
IC50 (WT cells): 17.6 µM | IC50 [1]: > 25 µM

Cc1ccc(C2=NN(S(=O)(=O)c3ccccc3)C(c3ccccc3O)C2)cc1 (stereo not drawn)
IC50 (WT cells): 3.89 µM | IC50 [1]: 24.4 µM

C/C(=N\O)c1ccc2c3c([nH]c2c1)CCCC3
IC50 (WT cells): > 25 µM (inactive) | IC50 [1]: > 25 µM

CCc1ccccc1NC(=O)/C(=C/c1ccccc1)c1ccccc1
IC50 (WT cells): 17.4 µM | IC50 [1]: > 25 µM

CCCNC(=S)Nc1ccc2nc(-c3ccccn3)c(-c3ccccn3)nc2c1
IC50 (WT cells): > 25 µM (inactive) | IC50 [1]: > 25 µM

Cc1ccc(NNC(=S)Nc2ccc(C(C)C)cc2)c(C)c1
IC50 (WT cells): 15.3 µM | IC50 [1]: > 25 µM

CCOC(=O)C1CCCN(C(=O)CS(=O)(=O)Cc2ccccc2)C1 (stereo not drawn)
IC50 (WT cells): > 25 µM (inactive) | IC50 [1]: > 25 µM

Cc1nc(N2CCCCC2)c2c(C)c(C(=O)Nc3ccccc3C(F)(F)F)sc2n1
IC50 (WT cells): > 25 µM (inactive) | IC50 [1]: > 25 µM

Cc1ccc(-n2nc3c(c2NC(=O)c2ccc4c(c2)OCO4)CSC3)c(C)c1
IC50 (WT cells): > 25 µM (inactive) | IC50 [1]: > 25 µM

CC(C)c1ccccc1OCC(=O)NC1CCCc2ccccc21 (stereo not drawn)
IC50 (WT cells): 20.4 µM | IC50 [1]: > 25 µM

Cc1cc(NC(=S)N(Cc2ccc(Br)cc2)Cc2ccc(C(=O)O)cc2)ccc1Cl
IC50 (WT cells): 16.3 µM | IC50 [1]: > 25 µM

CC1CC(C)CN(C(=O)c2cc3cc(Br)cc(Br)c3o2)C1 (stereo not drawn)
IC50 (WT cells): 13.7 µM | IC50 [1]: 22.5 µM

CCC(=O)N1CCN(c2ccccc2NC(=O)COc2cc(C)ccc2C(C)C)CC1
IC50 (WT cells): > 25 µM (inactive) | IC50 [1]: > 25 µM

Cc1cc(Nc2nc(Cl)c(Cl)cc2Cl)n(-c2ccccc2)n1
IC50 (WT cells): 24.1 µM | IC50 [1]: > 25 µM

COc1ccc(C(=O)NN(C)c2nc(-c3ccccc3)nnc2C(F)(F)F)cc1
IC50 (WT cells): > 25 µM (inactive) | IC50 [1]: > 25 µM

CCCCNC(=S)N(C)/N=C/c1ccc2c(c1)OCO2
IC50 (WT cells): 25 µM (inactive) | IC50 [1]: > 25 µM

COc1ccc(CNC(=O)C2CC(=O)N(c3ccc(OCC(=O)N4C(C)CCCC4C)cc3)C2)cc1 (stereo not drawn)
IC50 (WT cells): > 25 µM (inactive) | IC50 [1]: > 25 µM

Cc1ccc(Nc2ccc(C(=O)O)cc2N)cc1
IC50 (WT cells): > 25 µM (inactive) | IC50 [1]: > 25 µM

COc1ccc(NC(=S)N(CCc2c(C)[nH]c3ccc(C)cc23)Cc2ccco2)cc1
IC50 (WT cells): 8.8 µM | IC50 [1]: > 25 µM

O=[N+]([O-])c1ccccc1/C=N/n1c(C2CCCCC2)n[nH]c1=S
IC50 (WT cells): > 25 µM (inactive) | IC50 [1]: > 25 µM

Cc1ccc(C)c(N2CCN(C(=O)C3CCCCN3S(=O)(=O)c3ccc(F)cc3)CC2)c1 (stereo not drawn)
IC50 (WT cells): 18.3 µM | IC50 [1]: > 25 µM

CCOC(=O)C1=NN(c2cccc(C)c2)C2(S1)SC(C(C)=O)=C(C)N2c1ccccc1 (stereo not drawn)
IC50 (WT cells): 8.2 µM | IC50 [1]: > 25 µM

Cn1c(CCN2CCN(c3ccccc3)CC2)nc2cc(NC(=O)c3ccco3)ccc21
IC50 (WT cells): > 25 µM (inactive) | IC50 [1]: > 25 µM

Source: PubChem BioAssay AID1361 (SRMLSC, 2008)
